Earlier results in publication PMC12557437, “Research towards selective inhibition of the CLK3 kinase” (Beilstein Journal of Organic Chemistry, 2025).

Tests used:
[1] = system: CLK1; details: human protein kinase; ref 17 (SM08502), 19 (T3), 20-21 (CX-4945), 24 (DB18); cited from earlier work
[2] = system: CLK2; details: human protein kinase; ref 17 (SM08502), 19 (T3), 20-21 (CX-4945), 24 (DB18); cited from earlier work
[3] = system: CLK3; details: human protein kinase; ref 17 (SM08502), 19 (T3), 20-21 (CX-4945), 24 (DB18); cited from earlier work
[4] = system: DYRK1A; details: human protein kinase; ref 17 (SM08502), 19 (T3), 20-21 (CX-4945), 24 (DB18); cited from earlier work
[5] = system: DYRK1B; parameters: method as in earlier work; details: human protein kinase; ref 17 (SM08502), 19 (T3); cited from earlier work
[6] = target: CLK1; parameters: method as in PMID 29769258; details: human protein kinase; cited from earlier work
[7] = target: CLK2; parameters: method as in PMID 29769258; details: human protein kinase; cited from earlier work
[8] = target: CLK3; parameters: method as in PMID 29769258; details: human protein kinase; cited from earlier work
[9] = target: CLK4; parameters: method as in PMID 29769258; details: human protein kinase; cited from earlier work
[10] = target: DYRK1A; parameters: method as in PMID 29769258; details: human protein kinase; cited from earlier work
[11] = target: DYRK1B; parameters: method as in PMID 29769258; details: human protein kinase; cited from earlier work
[12] = target: DYRK2; parameters: method as in PMID 29769258; details: human protein kinase; cited from earlier work
[13] = target: Mm_CLK4 (Mus musculus, UniProt O35493); details: data taken from ref 23-24; cited from earlier work
[14] = target: Rn_DYRK1A (Rattus norvegicus, UniProt Q63470); details: data taken from ref 23-24; cited from earlier work
[15] = system: CLK4; details: human protein kinase; ref 17 (SM08502), 20-21 (CX-4945), 24 (DB18); cited from earlier work
[16] = system: DYRK2; parameters: method as in PMID 31560935; details: human protein kinase; cited from earlier work

Mm_CLK4, sequence (O35493 whole entry): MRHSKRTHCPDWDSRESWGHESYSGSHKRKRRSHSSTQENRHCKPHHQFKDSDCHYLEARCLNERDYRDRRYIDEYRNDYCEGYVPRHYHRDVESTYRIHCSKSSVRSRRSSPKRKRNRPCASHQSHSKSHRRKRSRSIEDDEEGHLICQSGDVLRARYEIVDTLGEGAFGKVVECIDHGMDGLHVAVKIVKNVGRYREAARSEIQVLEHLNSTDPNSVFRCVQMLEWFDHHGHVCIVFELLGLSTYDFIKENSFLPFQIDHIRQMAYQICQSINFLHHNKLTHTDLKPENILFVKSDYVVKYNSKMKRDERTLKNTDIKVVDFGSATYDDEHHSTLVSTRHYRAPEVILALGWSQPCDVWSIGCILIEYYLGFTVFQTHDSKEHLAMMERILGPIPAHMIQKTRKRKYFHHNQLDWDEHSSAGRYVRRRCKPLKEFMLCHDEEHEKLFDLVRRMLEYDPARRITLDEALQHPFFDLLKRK

For `CN1CCN(C(=O)C(C)(C)c2ccc(C(=O)Nc3cn4cc(-c5ccncc5)ccc4n3)cc2)CC1` [Compound T3], the IC50 [1] is given as 0.67 nM, the IC50 [2] is given as 15 nM and the IC50 [3] is given as 110 nM. The IC50 [4] was 260 nM and the IC50 [5] was 230 nM.
In the case of `CNc1nc(NCc2cnccn2)c2c(-c3ccc4ncccc4c3)c[nH]c2n1` [Compound T-025], the Kd [6] is given as 4.8 nM, the Kd [7] is given as 0.096 nM and the Kd [8] is given as 6.5 nM. The Kd [9] was 0.61 nM, the Kd [10] was 0.074 nM and the Kd [11] was 1.5 nM. For the same compound, the Kd [12] was 32 nM.
In the case of `Cc1ccc(-n2cc(COc3cccc4cnc(Nc5cccc(Cl)c5)nc34)nn2)c([N+](=O)[O-])c1` [DB18], the IC50 [13] is given as 20 nM and the IC50 [14] is given as > 100000 nM.
For `CN1CCN(c2cc(C(=O)Nc3cc4cc(-c5cnn(C)c5)ccc4cn3)ccn2)CC1` [SM08502], the IC50 [1] is listed as 8 nM, the IC50 [2] is listed as […] and the IC50 [3] is listed as 22 nM. For the same compound, the IC50 [15] was 1 nM, the IC50 [4] was 1 nM and the IC50 [5] was […]. The IC50 [16] was […].
